Reference: ChEMBL document CHEMBL1134981, “Pyrrolidine and piperidine analogues of SC-57461A as potent, orally active inhibitors of leukotriene A(4) hydrolase” (Bioorg Med Chem Lett, 2002)

Key:
Homo sapiens = organism: Homo sapiens; test: Inhibition of leukotriene B4 production in human whole blood; assay type: functional
Mus musculus [1] = test: Ex vivo inhibition of LTB4 production in mouse whole blood at 10 mg/kg; assay type: functional
Mus musculus [2] = organism: Mus musculus; test: Oral potency for Ex vivo inhibition of LTB4 production in mouse whole blood; assay type: functional
[3] = molecular target: T1, Leukotriene A-4 hydrolase (Homo sapiens, UniProt P09960); test: Inhibition of leukotriene A4 hydrolase in human recombinant assay
T1 sequence (P09960 whole entry): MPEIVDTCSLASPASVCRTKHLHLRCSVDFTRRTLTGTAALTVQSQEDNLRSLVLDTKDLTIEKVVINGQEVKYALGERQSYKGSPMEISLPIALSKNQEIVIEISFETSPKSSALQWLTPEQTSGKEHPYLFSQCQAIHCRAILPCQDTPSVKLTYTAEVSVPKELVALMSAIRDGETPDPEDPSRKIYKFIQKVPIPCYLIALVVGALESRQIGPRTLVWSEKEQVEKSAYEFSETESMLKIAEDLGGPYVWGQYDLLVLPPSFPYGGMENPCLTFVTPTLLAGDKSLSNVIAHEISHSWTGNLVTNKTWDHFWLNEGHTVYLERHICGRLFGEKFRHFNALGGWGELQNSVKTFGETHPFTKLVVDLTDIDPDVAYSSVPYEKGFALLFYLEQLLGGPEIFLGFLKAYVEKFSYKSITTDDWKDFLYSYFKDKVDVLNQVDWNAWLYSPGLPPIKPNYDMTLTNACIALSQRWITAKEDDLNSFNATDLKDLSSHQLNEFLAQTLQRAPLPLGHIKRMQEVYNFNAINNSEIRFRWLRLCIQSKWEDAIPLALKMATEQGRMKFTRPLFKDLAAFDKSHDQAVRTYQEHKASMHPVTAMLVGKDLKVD

Mus musculus [4] = organism: Mus musculus; test: Ex vivo inhibition of LTB4 production in mouse whole blood; assay type: functional
Rattus norvegicus [5] = organism: Rattus norvegicus; test: The compound was tested for oral efficacy in rat reversed passive dermal Arthus model; 3-10; assay type: functional
Rattus norvegicus [6] = test: The compound was orally efficacious in rat peritoneal Leukotriene B4 production; assay type: functional; details: po
Rhesus monkey = test: The compound showed excellent potency when dosed orally, inhibiting the production of Leukotriene B4; assay type: functional, Cercopithecidae; details: Macaca mulatta, po

IC50 (Homo sapiens) [nM]	SMILES	inhibition in vivo at 10 mg/kg (Mus musculus [1]; Mus musculus, Blood) [%]	further results
230	COC(=O)C1CCN(CCOc2ccc(Cc3ccccc3)cc2)C1 (configuration not stated)		
	c1ccc(Cc2ccc(OCCN3CCCCC3)cc2)cc1	8	
1650	CCOC(=O)C1CCCN(CCOc2ccc(Cc3ccccc3)cc2)C1 (configuration not stated)		IC50 [3]: > 3000 nM
350	NC(=O)NC1CCN(CCOc2ccc(Cc3ccccc3)cc2)C1 (configuration not stated)		
580	OCC1CCN(CCOc2ccc(Cc3ccccc3)cc2)CC1	85	IC50 [3]: 52 nM
180	CC(=O)NC1CCN(CCOc2ccc(Cc3ccccc3)cc2)CC1		
200	COC(=O)C1CC2CC1CN2CCOc1ccc(Cc2ccccc2)cc1 (configuration not stated)	50	IC50 [3]: 47 nM
130	CNC(=O)C1CCN(CCOc2ccc(Cc3ccccc3)cc2)CC1	92	
290	O=C(O)C1CCN(CCOc2ccc(Cc3ccccc3)cc2)CC1		inhibition in vivo at 10 mg/kg (Mus musculus [1]): 80%; IC50 [3]: 280 nM
2400	NC(=O)N1CCN(CCOc2ccc(Cc3ccccc3)cc2)CC1		
640	NC(=O)C1CCN(CCOc2ccc(Cc3ccccc3)cc2)CC1	95	ED90 (Mus musculus [2]): 3 mg/kg; IC50 [3]: 130 nM
	OC1CCN(CCOc2ccc(Cc3ccccc3)cc2)C1 (configuration not stated)	50	IC50 [3]: 30 nM
240	COC(=O)CC1CCN(CCOc2ccc(Cc3ccccc3)cc2)C1 (configuration not stated)	75	ED90 (Mus musculus [2]): 10 mg/kg
420	CC(=O)NC1CCN(CCOc2ccc(Cc3ccccc3)cc2)C1 (configuration not stated)	22	
700	CCOC(=O)CNC(=O)C1CCN(CCOc2ccc(Cc3ccccc3)cc2)CC1	91	ED90 (Mus musculus [2]): 3 mg/kg; IC50 [3]: 110 nM
440	NC(=O)NC1CCN(CCOc2ccc(Cc3ccccc3)cc2)CC1		
1860	COC(=O)[C@@H]1CCCN1CCOc1ccc(Cc2ccccc2)cc1	0	
400	NC(=O)CC1CCN(CCOc2ccc(Cc3ccccc3)cc2)C1 (configuration not stated)	4	
360	NC(=O)C1CCN(CCOc2ccc(Cc3ccccc3)cc2)C1 (configuration not stated)	60	
	N#CC1CCN(CCOc2ccc(Cc3ccccc3)cc2)CC1	56	
820	CCOC(=O)C1CCN(CCOc2ccc(Cc3ccccc3)cc2)CC1		IC50 [3]: 1800 nM; ED90 (Mus musculus [4]): 3 mg/kg; ED90 (Rattus norvegicus [5]): 3 mg/kg; ED50 (Rattus norvegicus [6]): 3 mg/kg; ED90 (Rattus norvegicus [6]): 30 mg/kg; ED90 (Rhesus monkey): < 10 mg/kg
290	NC1CCN(CCOc2ccc(Cc3ccccc3)cc2)C1 (configuration not stated)		
	c1ccc(Cc2ccc(OCCN3CCC(c4nnn[nH]4)CC3)cc2)cc1		ED90 (Mus musculus [2]): 3 mg/kg
	COC(=O)CC1CC2CC1CN2CCOc1ccc(Cc2ccccc2)cc1 (stereo in doubt; 26)	80	ED90 (Mus musculus [2]): ≥ 10 mg/kg
	COC(=O)CC1CC2CC1CN2CCOc1ccc(Cc2ccccc2)cc1 (stereo in doubt; 27)		Inhibition (Mus musculus [1]; 10 mg/kg): 70%

SMILES	IC50 (Homo sapiens) [nM]	inhibition in vivo at 10 mg/kg (Mus musculus [1]; Mus musculus, Blood) [%]	further results
CN(CCCOc1ccc(Cc2ccccc2)cc1)CCC(=O)O	49	> 98	ED90 (Mus musculus [2]): 1 mg/kg
c1ccc(Cc2ccc(OCCN3CCCC3)cc2)cc1	120		
